The target of the experiment is T1, human PD-1 / PD-L1-Ig binding on Jurkat cell line over-expressing human PD-1 (Jurkat-PD-1) (Homo sapiens, UniProt Q15116).
T1 construct: expressed in transfected cells; host or cells: Jurkat
Description: Jurkat-PD-1 Cell Binding High-Content Screening Assay (CBA). Conditions: Jurkat-PD-1 cells, PE-labeled PD-L1-Ig 20 nM final; read-out: Jurkat HPD1_PDL1 IC50. The format is cell-based. In short, it runs like this: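 Read-out: high-content imaging of PE-tagged PD-L1-Ig bound to Jurkat cells overexpressing human PD-1, after fixation with 4% paraformaldehyde and Hoechst 33342 nuclear staining. Ligand was used at 20 nM final for 1 hour, after a 2 h compound exposure at 37° C in serum-containing DMEM.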

The term IC50 denotes the point on the concentration scale where inhibition reaches its midpoint.

Where a SMILES comes first, the peptide text is derived from it. Bridges are numbered along the chain shown (N, C = ends). [ ]: non-standard residue; d: D form. The star is where a group is joined. ξ: configuration not given here. Phe(3-CF3) = N[C@@H](Cc1cccc(C(F)(F)F)c1)C(=O)O; Phe(3-Ph) = N[C@@H](Cc1cccc(-c2ccccc2)c1)C(=O)O; Phe(4-COOH) = N[C@@H](Cc1ccc(C(=O)O)cc1)C(=O)O; Bip = N[C@@H](Cc1ccc(-c2ccccc2)cc1)C(=O)O; Phe(3-Me) = Cc1cccc(C[C@H](N)C(=O)O)c1; Abu(3S-NH2) = C[C@H](N)[C@H](N)C(=O)O; Ala(cPent) = N[C@@H](CC1CCCC1)C(=O)O; mTyr = N[C@@H](Cc1cccc(O)c1)C(=O)O; 4Pal = N[C@@H](Cc1ccncc1)C(=O)O; Cha = N[C@@H](CC1CCCCC1)C(=O)O; Cit = NC(=O)NCCC[C@H](N)C(=O)O; dCha = N[C@H](CC1CCCCC1)C(=O)O; Thr(3ξ) = CC(O)[C@H](N)C(=O)O; Tle = CC(C)(C)[C@H](N)C(=O)O; Carboxymethyl = O=C(O)C*; Orn = NCCC[C@H](N)C(=O)O; Dab = NCC[C@H](N)C(=O)O; Dap = NC[C@H](N)C(=O)O

T1 sequence (Q15116 25-288): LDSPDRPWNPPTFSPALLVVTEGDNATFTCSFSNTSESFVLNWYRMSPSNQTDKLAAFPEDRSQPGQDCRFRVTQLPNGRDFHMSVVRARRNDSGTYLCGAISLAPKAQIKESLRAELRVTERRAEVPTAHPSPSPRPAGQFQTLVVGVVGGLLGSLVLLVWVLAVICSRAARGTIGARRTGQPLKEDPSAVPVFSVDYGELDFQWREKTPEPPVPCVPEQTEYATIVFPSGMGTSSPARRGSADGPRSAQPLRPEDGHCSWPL

Consider `CC(C)C[C@@H]1NC(=O)[C@H](C(C)C)NC(=O)[C@H](CC2CCCCC2)NC(=O)[C@H](CCN)NC(=O)[C@@H](CC(C)C)NC(=O)[C@H](CCCN)NC(=O)[C@H](CCCNC(N)=O)NC(=O)[C@H](Cc2ccc(-c3ccccc3)cc2)NC(=O)[C@H](C(C)C)NC(=O)[C@H](Cc2c[nH]c3ccccc23)NC(=O)[C@H](CC(=O)O)NC(=O)[C@H](Cc2ccc(OCC(=O)O)cc2)NC(=O)[C@H](CN)NC(=O)CSC[C@@H](C(=O)N[C@@H](C)C(N)=O)NC1=O` [Compound 1321] ({CH2CO}-[Dap]Y(Carboxymethyl)DWV[Bip][Cit][Orn][dL][Dab][Cha]VLCA-NH2; thioether N-14), for which the IC50 was determined as 78.6 nM. With `CC(C)C[C@H]1NC(=O)[C@H](CCCN)NC(=O)[C@H](CCC(=O)O)NC(=O)[C@H](Cc2ccc(-c3ccccc3)cc2)NC(=O)[C@H](C(C)C)NC(=O)[C@H](Cc2cccc(Cl)c2)NC(=O)[C@H](CC(=O)O)NC(=O)[C@H](Cc2ccc(OCC(=O)O)cc2)NC(=O)[C@H](Cc2cccnc2)NC(=O)CSC[C@@H](C(=O)N[C@@H](C)C(N)=O)NC(=O)[C@H]([C@@H](C)O)NC(=O)[C@H](C(C)C)NC(=O)[C@H](CC2CCCCC2)NC(=O)[C@H](CCN)NC1=O` [Compound 1501] the figure was 10.7 nM; with `CCCC[C@H]1NC(=O)[C@H](CCCN)NC(=O)[C@H]([C@@H](C)CC)NC(=O)[C@H](Cc2ccc(-c3ccccc3)cc2)NC(=O)[C@H](C(C)C)NC(=O)[C@H](Cc2c[nH]c3ccccc23)NC(=O)[C@H](CC(=O)O)NC(=O)[C@H](Cc2ccc(OCC(=O)O)cc2)NC(=O)[C@H](Cc2ccncc2)NC(=O)CSC[C@@H](C(=O)N[C@@H](C)C(N)=O)NC(=O)[C@H]([C@@H](C)O)NC(=O)[C@H](C(C)C)NC(=O)[C@H](CC2CCCCC2)NC(=O)[C@H](CCN)NC1=O` [Compound 1709], 10.4 nM; with `CC(C)[C@@H]1NC(=O)[C@H](Cc2c[nH]c3ccccc23)NC(=O)[C@H](CC(=O)O)NC(=O)[C@H](Cc2ccc(OCC(=O)O)cc2)NC(=O)[C@H](CN)NC(=O)CSC[C@@H](C(=O)N[C@@H](C)C(N)=O)NC(=O)[C@H]([C@@H](C)O)NC(=O)[C@H](C(C)C)NC(=O)[C@H](CC2CCCCC2)NC(=O)[C@H](CCN)NC(=O)[C@@H](CC2CCCCC2)NC(=O)[C@H](CCCN)NC(=O)[C@H](C(C)C)NC(=O)[C@H](Cc2ccc(-c3ccccc3)cc2)NC1=O` [Compound 1635] ({CH2CO}-[Dap]Y(Carboxymethyl)DWV[Bip]V[Orn][dCha][Dab][Cha]VTCA-NH2; thioether N-14), 18.1 nM. With `Cc1cccc(C[C@@H]2NC(=O)[C@H](CC(=O)O)NC(=O)[C@H](Cc3ccncc3)NC(=O)[C@H](Cc3ccc(OCC(=O)O)cc3)NC(=O)CSC[C@@H](C(=O)N[C@@H](C)C(N)=O)NC(=O)[C@H]([C@@H](C)O)NC(=O)[C@H](C(C)C)NC(=O)[C@H](CC(C)C)NC(=O)[C@H](CCN)NC(=O)[C@@H](CC(C)C)NC(=O)[C@H](CCCN)NC(=O)[C@H](CCCNC(N)=O)NC(=O)[C@H](Cc3ccc(-c4ccccc4)cc3)NC(=O)[C@H](C(C)C)NC2=O)c1` [Compound 1324] ({CH2CO}-Y(Carboxymethyl)[4Pal]D[Phe(3-Me)]V[Bip][Cit][Orn][dL][Dab]LVTCA-NH2; thioether N-14) the figure was 15.5 nM; with `CC(C)C[C@H]1NC(=O)[C@H](CCCN)NC(=O)[C@H](C(C)C)NC(=O)[C@H](Cc2ccc(-c3ccccc3)cc2)NC(=O)[C@H](C(C)C)NC(=O)[C@H](Cc2c[nH]c3ccccc23)NC(=O)[C@H](CC(=O)O)NC(=O)[C@H](Cc2ccc(OCC(=O)O)cc2)NC(=O)[C@H](C(C)O)NC(=O)CSC[C@@H](C(=O)N[C@@H](CO)C(=O)O)NC(=O)[C@H](C(C)O)NC(=O)[C@H](C(C)C)NC(=O)[C@H](CC2CCCCC2)NC(=O)[C@H](CCN)NC1=O` (stereo partly drawn) [Compound 2603] ({CH2CO}-[Thr(3ξ)]Y(Carboxymethyl)DWV[Bip]V[Orn][dL][Dab][Cha]V[Thr(3ξ)]CS-OH; thioether N-14), 17.6 nM. Consider `CC(C)C[C@H]1NC(=O)[C@H](CCCN)NC(=O)[C@H](CCCNC(N)=O)NC(=O)[C@H](Cc2ccc(-c3ccccc3)cc2)NC(=O)[C@H](CC2CCCC2)NC(=O)[C@H](Cc2c[nH]c3ccccc23)NC(=O)[C@H](CC(=O)O)NC(=O)[C@H](Cc2ccc(OCC(=O)O)cc2)NC(=O)[C@H](CN)NC(=O)CSC[C@@H](C(=O)N[C@@H](C)C(N)=O)NC(=O)[C@H]([C@@H](C)O)NC(=O)[C@H](C(C)C)NC(=O)[C@H](CC2CCCCC2)NC(=O)[C@H](CCN)NC1=O` [Compound 1353] ({CH2CO}-[Dap]Y(Carboxymethyl)DW[Ala(cPent)][Bip][Cit][Orn][dL][Dab][Cha]VTCA-NH2; thioether N-14), for which the IC50 was 10.9 nM. `CCNC(=O)[C@H](CCN)NC(=O)[C@@H]1CSCC(=O)N[C@@H](CN)C(=O)N[C@@H](Cc2ccc(OCC(=O)O)cc2)C(=O)N[C@@H](CC(=O)O)C(=O)N[C@@H](Cc2cccc(O)c2)C(=O)N[C@@H](Cc2ccc(O)cc2)C(=O)N[C@@H](Cc2ccc(-c3ccccc3)cc2)C(=O)N[C@@H](Cc2ccc(O)cc2)C(=O)N[C@@H](CCCN)C(=O)N[C@H](CC(C)C)C(=O)N[C@@H](CCN)C(=O)N[C@@H](CC2CCCCC2)C(=O)N[C@@H](C(C)C)C(=O)N[C@@H](CCCN)C(=O)N1` [Compound 2047] ({CH2CO}-[Dap]Y(Carboxymethyl)D[mTyr]Y[Bip]Y[Orn][dL][Dab][Cha]V[Orn]C[Dab]-NHEt; thioether N-14): the IC50 is 2.8 nM. `CC(=O)NCCCC[C@@H]1NC(=O)[C@H](CCCNC(N)=O)NC(=O)[C@H](Cc2ccc(-c3ccccc3)cc2)NC(=O)[C@H](CC(C)C)NC(=O)[C@H](Cc2c[nH]c3ccccc23)NC(=O)[C@H](CC(N)=O)NC(=O)[C@H](Cc2ccc(OCC(=O)O)cc2)NC(=O)[C@H](Cc2ccccc2)NC(=O)CSC[C@@H](C(=O)N[C@@H](C)C(N)=O)NC(=O)[C@H](CO)NC(=O)[C@H](C(C)C)NC(=O)[C@H](CC2CCCCC2)NC(=O)[C@H](CC(N)=O)NC(=O)[C@@H](CC(C)C)NC1=O` [Compound 2502] ({CH2CO}-FY(Carboxymethyl)NWL[Bip][Cit]K(Ac)[dL]N[Cha]VSCA-NH2; thioether N-14): the IC50 is 50.8 nM. The figure for `CC(C)C[C@H]1NC(=O)[C@H](CCCN)NC(=O)[C@H](Cc2ccc(C(=O)O)cc2)NC(=O)[C@H](Cc2ccc(-c3ccccc3)cc2)NC(=O)[C@H](Cc2ccc(C(=O)O)cc2)NC(=O)[C@H](Cc2cccc(C(F)(F)F)c2)NC(=O)[C@H](CC(=O)O)NC(=O)[C@H](Cc2ccc(C(=O)O)cc2)NC(=O)[C@H]([C@H](C)N)NC(=O)CSC[C@@H](C(=O)N[C@@H](CCN)C(N)=O)NC(=O)[C@H](CO)NC(=O)[C@H](C(C)(C)C)NC(=O)[C@H](CC2CCCCC2)NC(=O)[C@H](CCN)NC1=O` [Example 2708] ({CH2CO}-[Abu(3S-NH2)][Phe(4-COOH)]D[Phe(3-CF3)][Phe(4-COOH)][Bip][Phe(4-COOH)][Orn][dL][Dab][Cha][Tle]SC[Dab]-NH2; thioether N-14) is 0.6 nM; for `COC[C@@H]1NC(=O)[C@H](Cc2ccc(OCC(=O)O)cc2)NC(=O)[C@H](CN)NC(=O)CSC[C@@H](C(=O)N[C@@H](C)C(N)=O)NC(=O)[C@H]([C@@H](C)O)NC(=O)[C@H](C(C)C)NC(=O)[C@H](CC2CCCCC2)NC(=O)[C@H](CCN)NC(=O)[C@@H](CC(C)C)NC(=O)[C@H](CCCN)NC(=O)[C@H](CCC(=O)O)NC(=O)[C@H](Cc2ccc(-c3ccccc3)cc2)NC(=O)[C@H](C(C)C)NC(=O)[C@H](Cc2c[nH]c3ccccc23)NC1=O` [Compound 1500] ({CH2CO}-[Dap]Y(Carboxymethyl)S(Me)WV[Bip]E[Orn][dL][Dab][Cha]VTCA-NH2; thioether N-14) it is 238 nM; for `CC(C)C[C@@H]1NC(=O)[C@H](CC(N)=O)NC(=O)[C@@H](CC(C)C)NC(=O)[C@H](CN)NC(=O)[C@H](C(C)C)NC(=O)[C@H](Cc2ccc(-c3ccccc3)cc2)NC(=O)[C@H](C(C)C)NC(=O)[C@H](Cc2c[nH]c3ccccc23)NC(=O)[C@H](CC(=O)O)NC(=O)[C@H](Cc2ccc(OCC(=O)O)cc2)NC(=O)[C@H](Cc2ccc(OCC(=O)O)cc2)NC(=O)CSC[C@@H](C(=O)NCC(N)=O)NC(=O)[C@H](CO)NC(=O)[C@H](C(C)C)NC1=O` [Compound 1292] ({CH2CO}-Y(Carboxymethyl)Y(Carboxymethyl)DWV[Bip]V[Dap][dL]NLVSCG-NH2; thioether N-14) it is 7.2 nM.

As for `CC(C)C[C@H]1NC(=O)[C@H](CCCN)NC(=O)[C@H](CCC(=O)O)NC(=O)[C@H](Cc2ccc(-c3ccccc3)cc2)NC(=O)[C@H](C(C)C)NC(=O)[C@H](Cc2c[nH]c3ccccc23)NC(=O)[C@H](CC(=O)O)NC(=O)[C@H](Cc2ccc(OCC(=O)O)cc2)NC(=O)[C@H](CN)NC(=O)CSC[C@@H](C(=O)N[C@@H](C)C(N)=O)NC(=O)[C@H]([C@@H](C)O)NC(=O)[C@H](C(C)C)NC(=O)[C@H](Cc2cc(F)c(F)cc2F)NC(=O)[C@H](CCN)NC1=O` [Compound 1477], the IC50 was 144 nM. As for `Cc1cccc(C[C@@H]2NC(=O)[C@H](CC(=O)O)NC(=O)[C@H](Cc3ccncc3)NC(=O)[C@H](CN)NC(=O)CSC[C@@H](C(N)=O)NC(=O)[C@H]([C@@H](C)O)NC(=O)[C@H](C(C)C)NC(=O)[C@H](CC(C)C)NC(=O)[C@H](CCN)NC(=O)[C@@H](CC(C)C)NC(=O)[C@H](CCCN)NC(=O)[C@H](CCCNC(N)=O)NC(=O)[C@H](Cc3cccc(-c4ccccc4)c3)NC(=O)[C@H](C(C)C)NC2=O)c1` [Compound 1654] ({CH2CO}-[Dap][4Pal]D[Phe(3-Me)]V[Phe(3-Ph)][Cit][Orn][dL][Dab]LVTC-NH2; thioether N-14), the IC50 is 124 nM.

The values are drawn from patent US20250163104A1, “MACROCYCLIC IMMUNOMODULATORS” (priority 2021, published 2025).
